Laboratory results published in patent US9850257B2, “Tricyclic heterocycles as BET protein inhibitors” (Incyte Corporation, priority 2013, dated 2017).
Structures can show the parent of a compound that is named as a salt.

How the values were obtained:
[1] = target: BRD4-BD2 (Homo sapiens (Human), UniProt O60885); experiment: BRD4 AlphaScreen assay (BD2); format: binding; details: biotin-labeled tetra-acetylated histone H4 peptide, 20 nM BRD4-BD2, read-out: BRD4 BD-2 enzyme IC50
Description: (§1) BRD4-BD1 and BRD4-BD2 assays were conducted in white 384-well polystyrene plate in a final volume of 20 μL for BD1 and 40 μL for BD2. Inhibitors were first serially diluted in DMSO and added to the plate wells before the addition of other reaction components. The final concentration of DMSO in the assay was 1.25% (BD1) and 0.83% (BD2). The assays were carried out at room temperature for 75 min. in the assay buffer (50 mM HEPES, pH 7.4, 100 mM NaCl, 0.05% CHAPS, 0.01% BSA), containing 50 nM Biotin-labeled tetra-acetylated histone H4 peptide (H4Ac4), 3.8 nM (BRD4-BD1, BPS Bioscience #31040) or 20 nM (BRD4-BD2, BPS Bioscience #31041). The reaction followed by the addition of 20 μL of assay buffer supplemented with Streptavidin donor beads (PerkinElmer 6760002) and GSH Acceptor beads (PerkinElmer-AL109C) at 4 jag/mL under reduced light. After plate sealing, the plate was incubated in the dark at room temperature for 75 min. before reading on a PHERAstar FS plate reader (BMG Labtech). IC50 determination was performed by fitting the curve of percent control activity versus the log of the inhibitor concentration using the GraphPad Prism 5.0 software.

[2] = target: BRD4-BD1 (Homo sapiens (Human), UniProt O60885); experiment: BRD4 AlphaScreen assay (BD1); format: binding; details: biotin-labeled tetra-acetylated histone H4 peptide, 3.8 nM BRD4-BD1, read-out: BRD4 BD-1 enzyme IC50
Description: as §1

[3] = system: KMS.12.BM cell line (human myeloma); experiment: KMS.12.BM cell viability assay; format: cell-based; details: 72 h, KMS.12.BM cells, 3 days, Cell Titer-GLO ATP quantitation, read-out: KMS cellular IC50
Description: KMS.12.BM Cell Viability Assay
KMS.12.BM cell line (human myeloma) was purchased from JCRB (Osaka, Japan) and maintained in RPMI with 10% FBS culture medium. To measure the cytotoxic activity of the compounds through ATP quantitation, the KMS. 12.BM cells are plated in the RPMI culture medium at 5000 cells/well/per 100 μL into a 96-well polystyrene clear black tissue culture plate (Greiner-bio-one through VWR, NJ), in the presence or absence of a concentration range of test compounds. After 3 days, […] Cell Titer-GLO Luminescent (Promega, Madison, Wis.) cell culture agent is added to each well for 10 minutes at room temperature to stabilize the luminescent signal. This determines the number of viable cells in culture based on quantitation of the ATP present, which signals the presence of metabolically active cells. Luminescence is measured with the Top Count 384 (Packard Bioscience through Perkin Elmer, Boston, Mass.). Compound inhibition is determined relative to cells cultured with no drug and the IC50 reported as the compound concentration required for 50% cell death.

IC50 [1] [nM]	IC50 [2] [nM]	IC50 [3] [nM]	SMILES
≤ 200	≤ 200	≤ 1000	Cc1noc(C)c1-c1ccc2c(=O)[nH]n3c2c1OCC3c1ccccc1 (centres unmarked) [Example 1, 9-(3,5-Dimethylisoxazol-4-yl)-3-phenyl-2,3-dihydro[1,4]oxazino[2,3,4-hi]indazol-6(5H)-one]
≤ 200	≤ 200	≤ 1000	Cc1noc(C)c1-c1ccc2c(=O)n(C)n3c2c1OCC3c1ccccc1 (centres unmarked) [Example 2, 9-(3,5-Dimethylisoxazol-4-yl)-5-methyl-3-phenyl-2,3-dihydro[1,4]oxazino[2,3,4-hi]indazol-6(5H)-one]
≤ 200	≤ 200	≤ 1000	COc1nn2c3c(c(-c4c(C)noc4C)ccc13)OCC2c1ccccc1 (centres unmarked) [Example 3, 9-(3,5-Dimethylisoxazol-4-yl)-6-methoxy-3-phenyl-2,3-dihydro[1,4]oxazino[2,3,4-hi]indazole]
≤ 200	≤ 200	≤ 1000	Cc1noc(C)c1-c1ccc2cnn3c2c1OCC3c1ccccc1 (centres unmarked) [Example 4, 9-(3,5-Dimethylisoxazol-4-yl)-3-phenyl-2,3-dihydro[1,4]oxazino[2,3,4-hi]indazole]
≤ 200	200 to 1000	≤ 1000	Cc1noc(C)c1-c1ccc2c(=O)[nH]n3c2c1OCC3c1ccccn1 (centres unmarked) [Example 5, 9-(3,5-Dimethylisoxazol-4-yl)-3-pyridin-2-yl-2,3-dihydro[1,4]oxazino[2,3,4-hi]indazol-6(5H)-one]
≤ 200	≤ 200	≤ 1000	Cc1noc(C)c1-c1ccc2c(=O)n(C)n3c2c1OCC3c1ccccn1 (centres unmarked) [Example 6, 9-(3,5-Dimethylisoxazol-4-yl)-5-methyl-3-pyridin-2-yl-2,3-dihydro[1,4]oxazino[2,3,4-hi]indazol-6(5H)-one]
≤ 200	≤ 200	≤ 1000	COc1nn2c3c(c(-c4c(C)noc4C)ccc13)OCC2c1ccccn1 (centres unmarked) [Example 7, 9-(3,5-Dimethylisoxazol-4-yl)-6-methoxy-3-pyridin-2-yl-2,3-dihydro[1,4]oxazino[2,3,4-hi]indazole]
≤ 200	≤ 200	≤ 1000	Cc1noc(C)c1-c1ccc2cnn3c2c1OCC3c1ccccn1 (centres unmarked) [Example 8, 9-(3,5-Dimethylisoxazol-4-yl)-3-pyridin-2-yl-2,3-dihydro[1,4]oxazino[2,3,4-hi]indazole trifluoroacetate]
≤ 200	200 to 1000	1000 to 10000	Cc1noc(C)c1-c1cc(Br)c2cnn3c2c1OCC3c1ccccc1 (centres unmarked) [Example 9, 7-Bromo-9-(3,5-dimethylisoxazol-4-yl)-3-phenyl-2,3-dihydro[1,4]oxazino[2,3,4-hi]indazole]
≤ 200	200 to 1000	1000 to 10000	Cc1noc(C)c1-c1ccc2c(=O)[nH]n3c2c1OCC3c1cccnc1 (centres unmarked) [Example 10, 9-(3,5-Dimethylisoxazol-4-yl)-3-pyridin-3-yl-2,3-dihydro[1,4]oxazino[2,3,4-hi]indazol-6(5H)-one]
≤ 200	≤ 200	≤ 1000	Cc1noc(C)c1-c1ccc2c(=O)n(C)n3c2c1OCC3c1cccnc1 (centres unmarked) [Example 11, 9-(3,5-Dimethylisoxazol-4-yl)-5-methyl-3-pyridin-3-yl-2,3-dihydro[1,4]oxazino[2,3,4-hi]indazol-6(5H)-one]
≤ 200	≤ 200	≤ 1000	COc1nn2c3c(c(-c4c(C)noc4C)ccc13)OCC2c1cccnc1 (centres unmarked) [Example 12, 9-(3,5-Dimethylisoxazol-4-yl)-6-methoxy-3-pyridin-3-yl-2,3-dihydro[1,4]oxazino[2,3,4-hi]indazole]
200 to 1000	> 1000	–	Cc1noc(C)c1-c1cc(F)c2nnn3c2c1OCC3c1cccnc1 (centres unmarked) [Example 13, 7-(3,5-Dimethylisoxazol-4-yl)-9-fluoro-4-pyridin-3-yl-4,5-dihydro[1,2,3]triazolo[1,5,4-de][1,4]benzoxazine trifluoroacetate]
